The values that follow come from patent publication US20190209548A1, “LINKED DIARYL COMPOUNDS WITH ANTICANCER PROPERTIES AND METHODS OF USING THE SAME” (University of Maryland, College Park, priority 2014, published 2019).

In general, IC50 refers to the concentration at which inhibition is half-maximal.

In assay [1] the test system is 22mer hTel K^+. In words: ITC titration with hTel G-quadruplex, K+ form. It is filed as binding, human. The method, then: (§1) Isothermal titration calorimetry. ITC experiments were performed using a VP-ITC calorimeter (GE-Healthcare). A typical ITC experiment involved as many as addition of 28 (10 μL) injections of as high as 1 mM ligand solutions into ˜1.5 mL of a dilute DNA solution (10 μM). Corrected titration curves were achieved by subtracting the blank titration data from the ITC-data for the ligand-DNA titrations. Corrected ITC titrations were fit with a nonlinear regression algorithm again using the CHASM ITC data analysis program developed in our laboratory.
DNA stock solutions were prepared by reconstituting the lyophilized oligonucleotide into 20 mM Tris buffer with a salt concentration of 100 mM KCl and a pH of 7.2. Approximately 2 mL of the oligonucleotide was dialyzed (1000 Mw cutoff membrane) against three changes of buffer solution (1 L, 24 h each) at 4° C. The concentrations of stock DNA solutions were verified using UV-Vis. G-Quadruplex DNAs were annealed by quickly heating to sample to 100° C., holding at 100° C. for ten minutes then slowly cooling to 5° C. over three hours period. Molar extinction coefficient of the DNAs were determined using a nearest-neighbor method for single stranded DNA. The extinction coefficients at 260 nm for the WT 27-mer bcl-2, WT 24-mer c-myc, WT 22-mer human telomere hTel sequences are 267,200 M^−1cm^−1, 248,100 M^−1cm^−1, and 228,500 M^−1cm^−1 respectively. […]
For orientation: Isothermal titration calorimetry measures the heat released or taken up as one component is titrated into another.

Assay [2] concerns 8 bp AT. The experiment in a line: CD titration with AT-rich duplex DNA. It is filed as binding. As to conditions: ligand 40 μM, 8 bp AT 0-50 μM. How it is done:
CD experiments for binding of ligands with duplex DNA (AT-rich). CD titration experiments, monitoring in the wavelength region corresponding to the bound ligand, were performed with different concentrations of 8 bp AT (0-50 μM) added to a fixed concentration of either DMZ or Triazene-1 (40 μM).

Assay [3] has as its system 27mer bcl-2. In words: ITC titration with bcl-2 G-quadruplex. It is filed as binding. How it is done:
as §1
(§2) DNA stock solutions were prepared by reconstituting the lyophilized oligonucleotide into 20 mM Tris buffer with a salt concentration of 100 mM KCl and a pH of 7.2. Approximately 2 mL of the oligonucleotide was dialyzed (1000 Mw cutoff membrane) against three changes of buffer solution (1 L, 24 h each) at 4° C. The concentrations of stock DNA solutions were verified using UV-Vis. G-Quadruplex DNAs were annealed by quickly heating to sample to 100° C., holding at 100° C. for ten minutes then slowly cooling to 5° C. over three hours period. Molar extinction coefficient of the DNAs were determined using a nearest-neighbor method for single stranded DNA. The extinction coefficients at 260 nm for the WT 27-mer bcl-2, WT 24-mer c-myc, WT 22-mer human telomere hTel sequences are 267,200 M^−1cm^−1, 248,100 M^−1cm^−1, and 228,500 M^−1cm^−1 respectively. The extinction coefficient at 260 nm for the 7 base pair hairpin with A2T2 (7 bp HP⋅AT) and the 7 base pair hairpin without A2T2 (7 bp HP) are 165,200 M^−1cm^−1 and 159,200 M^−1cm^−1 respectively. Cell culture grade water purchased from Corning was used for all experiments.

In assay [4] the test system is G-quadruplex DNAs (c-kit1, VEGF, bcl-2 2345 and TBA). The experiment in a line: UV-visible titration with G-quadruplex DNA. It is filed as binding. As to conditions: ligand 10 μM, DNA 0-150 μM, 250 mM KCl, Tris-HCl pH 7.5. The method, then: UV titration studies of DNA with the triazene ligands, DMZ and Triazene-1. The molar extinction coefficients at 260 nm for 22-mer c-kit1, 18-mer VEGF, 23-mer bcl-2 2345, 15-mer TBA and 20-mer 8 bp AT are as follows 226,700 M^−1 cm^−1, 169,800 M^−1 cm^−1, 227,300 M^−1 cm^−1, 143,300 M^−1 cm^1 and 205,500 M^−1 cm^−1, respectively. The concentration of ligands used in this study was 10 μM and the DNA concentrations were 0, 0.25, 1.5, 3, 5, 6, 7, 8, 9, 10, 20, 30, 40, 50, 100, and 15 μM. The buffer contained 250 mM KCl, 50 mM Tris-HCl (at pH 7.5). The following quadruplex DNA were tested: c-kit1, VEGF, bcl-2 2345, and TBA. Duplex DNA (8 bp AT) was also tested. The sample was first heated up to 95° C. for 5 min without the ligand and then cooled down to room temperature in 15 min. The ligand was then added and the mixture was incubated at 4° C. for ˜12 h before recording the data. In case of Triazene-1 and Triazene-2, the sample mixture contained 1% DMSO.

Assay [5] concerns 24mer c-myc. The experiment in a line: ITC titration with c-myc G-quadruplex. It is filed as binding. The method, then:
as §1, §2

In assay [6] the test system is 7bp HP•AT. In words: ITC titration with 7 bp hairpin containing A2T2. It is filed as binding. The method, then:
as §1, §2

The subject of assay [7] is MCR5A. In words: WST-1 IC50 determination, normal fibroblast. The following applies: normal fibroblast cell, 72 hours. It is filed as cell-based, human. The method, then: (§3) Cell lines and culturing. The following human cell lines were purchased from ATCC (ATCC, Manassas, Va.): prostate cancer cells (PC-3), triple negative breast cancer cells (MDA-MB-231), ovarian cancer cells (OVCAR-3), normal bone marrow (NBM) and normal fibroblast cells (MCR5A). MDA-MB-231 cells were grown at 37° C. with 5% CO2 atmosphere with DMEM (Life technologies, Carlsbad, Calif.) supplemented with heat-inactivated 10% (V/V) fetal bovine serum. OVCAR-3 and PC-3 cells were grown at 37° C. with 5% CO2 atmosphere with RPMI (Life technologies, Carlsbad, Calif.) supplemented with heat-inactivated 10% (V/V) fetal bovine serum. Cell lines were grown and maintained according to ATCC recommendations.
(§4) IC50 determination. Cell lines were seeded into 96-well plates the afternoon prior to treatment. Cell seeding number was determined by growing cells in log phase growth during drug treatment. Approximately 18 hours later, compounds were semi-serially diluted in dimethyl sulfoxide (DMSO) and then growth medium, and added to cells. Plates were incubated for 72 hours prior to addition of WST-1 (Promega, Madison Wis.). Plates were read after 4 additional hours of incubation at 37° C. using a Bio-Tek Synergy HT plate reader (Bio-Tek, Winooski, Vt.). Data was analyzed, graphed and IC50s generated using GraphPad Prism Software (Graphpad, La Jolla, Calif.).
A general note: Formazan colour is commonly taken as a measure of viable cells.

Assay [8] has as its system NBM. The experiment in a line: WST-1 IC50 determination, normal bone marrow. In kind it is cell-based, human. As to conditions: normal bone marrow, 72 hours, WST-1. The method, then: as §3, §4
IC50 determination: For the determination of IC50 for the azolamide class, the same protocol as described previously was followed.

Where [9] appears, read: ITC, 20 mM Tris, 100 mM KCl, pH 7.2.
Where [10] appears, read: from ITC data, as low as, read-out: dissociation constant.

In the case of `N=C(N)c1ccc(NN=Nc2ccccc2)cc1` [DMZ1], the K1 amounted to 2100 M⁻¹ in assay [1]; 3500 M⁻¹ in assay [3] (setting [9]); 36000 M⁻¹ in assay [5] (setting [9]); 29000 M⁻¹ in assay [6] (20 mM Tris, 100 mM KCl, pH 7.2). Further, in assay [2], the “induced CD of ligand” value is reported as “No induced CD”. Further, in assay [4], the “shift of absorption spectrum upon DNA titration” value is listed as “red shift”. The “reduction in binding affinity relative to DMZ” value in assay [6] (compare Tables 2 and 3) was ~30 times.
Turning to `N=C(N)c1ccc(/N=N/Nc2ccc(C(=N)N)cc2)cc1` [DMZ, Diminazene aceturate, reference compound], the K3 in assay [1] was found to be 55000 M⁻¹; in assay [3] (setting [9]) it was 64000 M⁻¹; in assay [5] (setting [9]), 280000 M⁻¹. In addition, the “induced CD of ligand” value in assay [2] is given as “large positive induced CD”. The K1 in assay [3] (setting [9]) was 8.8e+08 M⁻¹; in assay [5] (setting [9]) it was 7.6e+08 M⁻¹. Further, the K2 in assay [3] (setting [9]) stood at 1.9e+06 M⁻¹; in assay [5] (setting [9]), 1.9e+07 M⁻¹; in assay [6] (20 mM Tris, 100 mM KCl, pH 7.2), 45000 M⁻¹. Also, the Kd in assay [3] (setting [10]) and in assay [5] (setting [10]) was ~0.001 µM each time. Also, the “shift of absorption spectrum upon DNA titration” value in assay [4] is “remarkable bathochromic shift (red shift) and a hypochromic effect”.
For `N=C(N)c1ccc(/N=N/Nc2ccccc2C#Cc2ccc(F)cc2)cc1` [DMZ13], in assay [7], the “IC50 ± SD, MCR5A” value is given as “NE (NE means not effective. Cell viability was the same or greater than 75% of the DMSO control at 20 μM compound concentration.)”. In addition, in assay [8], the “IC50 ± SD, NBM” value is reported as “NE (NE means not effective. Cell viability was the same or greater than 75% of the DMSO control at 20 μM compound concentration.)”.
In the case of `N=C(N)c1ccc(N=NNc2cccc(C#Cc3ccc(F)cc3)c2)cc1` [DMZ9], the concentration for half-maximal inhibition (IC50) in assay [7] (read-out: IC50 ± SD, MCR5A) turned out to be 8.3 ± 4 µM; in assay [8] (read-out: IC50 ± SD, NBM) it was 5.6 µM.
